Assay results: patent publication US7071178B2, “Use of vitamin D-derivatives in the treatment of osteoporosis and related bone disorders, as well as novel vitamin D3-derivatives” (Leo Pharmaceutical Products, Ltd., priority 2000, dated 2006)

What was measured:
OVX rats [1] = test: OVX rat model on osteoporosis: boneweight; format: in vivo; design: key to Anabolic effect on boneweight, Tibia, vs 1,25D3 / Anabolic effect on boneweight, Tibial Meta., vs 1,25D3 / Anabolic effect on boneweight, L4, vs 1,25D3 / Anabolic effect on boneweight, Femur, vs 1,25D3: <: less effect than the reference dose of 1,25D3 (0.25 ug/kg); <=: less or the same effect as the reference dose of 1,25D3 (0.25 ug/kg); =: same effect as the reference dose of 1,25D3 (0.25 ug/kg); =>: same or better effect as the reference dose of 1,25D3 (0.25 ug/kg); >: better effect than the reference dose of 1,25D3 (0.25 ug/kg); conditions: for Anabolic effect on boneweight, Femur, vs 1,25D3 / Anabolic effect on boneweight, Femur, vs Ovx contr / Anabolic effect on boneweight, L4, vs 1,25D3 / Anabolic effect on boneweight, L4, vs Ovx contr / Anabolic effect on boneweight, Tibia, vs 1,25D3 / Anabolic effect on boneweight, Tibia, vs Ovx contr / Anabolic effect on boneweight, Tibial Meta., vs 1,25D3 / Anabolic effect on boneweight, Tibial Meta., vs Ovx contr: oral 28 days
Excerpt: FIG. 1 is a graphic illustration of the effect on the weight of the lumbal vertebrae, L4, in rats according to the OVX rat model described herein, and wherein the animal groups received treatment according to the scheme below. A statistical analysis is shown below the graphic illustration. Differences between groups were investigated by the Kruskal-Wallis test, including a multiple comparison procedure: ns represents non-significant, nt represents not tested, and * represents p<0.05. Differences were considered significant at a p<0.05. Results are presented in the bar diagram as means+SD.
The animals were divided into 6 groups: • Group 1: Intact control, dosed Propylene glycol 0.1 ml/kg (Vehicle) • Group 2: OVX rats control, dosed Propylene glycol 0.1 ml/kg (Vehicle) • Group 3: OVX rats, dosed 1α,25(OH)2D3, […], dosed Compound 145, […]
(§1) Pharmacological Methods—OVX Rat Model on Osteoporosis
(§2) To study bone anabolic properties and the effects of the vitamin D analogues of the present invention in preventing or treating demineralisation of the skeleton in vivo, a 4 weeks OVX rat model was used:
(§3) An ovariectomized rat model (OVX model), orally dosed for 28 days is useful for screening of vitamin D analogues. In this model ovariectomy produces alterations in the cancellous network identical to those seen in the human skeleton during ageing and the menopause. Besides this the model and the following analyses can be performed under very standardised conditions. 1α,25(OH)2D3 is used as a reference compound.
(§4) Female Sprague Dawley rats weighing approximately 130 g (40–45 days old) were purchased from MB, Ejby, Denmark. The animals were fed a commercial diet and allowed free access to food and drinking water. The animals were split into groups receiving differential treatment.
(§5) The animals were anaesthetised and ovariectomized through a dorsal incision.
(§6) Treatment of OVX animals was started 2 weeks after ovariectomy.
(§7) The animals were dosed orally for 28 days. The oral dosage was by gavage 0.1 ml/100 g bodyweight. The bodyweight of each animal was recorded every day prior to oral dosing. On day 7, 14, 21 and 28 the animals were housed separately for 24 hours in metabolic cages for collection of urine. Urine was frozen at −20° C. for later calcium measurement.
Left and right femur, left and right tibia, lumbal vertebrae 3 and 4 (L3 and L4) were removed and cleaned for all soft- and connecting tissue. Left femur, left and right tibia and L4 were dried in an oven at 50–60° C. for at least 24 hours and immediately hereafter weighed. The bones were burned in an oven at 800° C. for 4 hours, dissolved in 1N HCl, and analysed for calcium content in a Hitachi 911 autoanalyser. Right femur and L3 were kept in 0.9% NaCl and frozen at −20° C. for later biomechanical testing performed by Jesper Skovhus Thomsen and Lis Mosekilde at Aarhus University, measuring various biomechanical parameters.
(§8) Effect of Compound 145 compared to the reference dose of 1,25(OH)2D3 (1,25D3) (0.25 μg/kg) and compared to the OVX control group (shown in %) are shown in Tables 1 to 4.

OVX rats [2] = test: OVX rat model on osteoporosis: urine calcium; format: in vivo; design: key to Effect on urine calcium vs 1,25D3: <: less effect than the reference dose of 1,25D3 (0.25 ug/kg); <=: less or the same effect as the reference dose of 1,25D3 (0.25 ug/kg); =: same effect as the reference dose of 1,25D3 (0.25 ug/kg); =>: same or better effect as the reference dose of 1,25D3 (0.25 ug/kg); >: better effect than the reference dose of 1,25D3 (0.25 ug/kg); conditions: oral 28 days
Excerpt: as §1, §2, §3, §4, §5, §6, §7, §8

Compound: C=C1C(=CC=C2CCCC3(C)C2CCC3C(C)CSc2ccc(C(C)(C)O)cc2)CC(O)CC1O [Compound 145, 1(S),3(R)-Dihydroxy-20(R)-(4-((1-hydroxy-1-methyl)ethyl)phenylthiomethyl)-9,10-seco-pregna-5(Z),7(E),10(19)-triene]
- Anabolic effect on boneweight, Femur, vs 1,25D3 (OVX rats [1]; 1 μg/kg, MTR/16): <=
- Anabolic effect on boneweight, Femur, vs Ovx contr (OVX rats [1]; 1 μg/kg, MTR/16): 6%
- Anabolic effect on boneweight, L4, vs 1,25D3 (OVX rats [1]; 1 μg/kg, MTR/16): <=
- Anabolic effect on boneweight, L4, vs Ovx contr (OVX rats [1]; 1 μg/kg, MTR/16): 9%
- Anabolic effect on boneweight, Tibia, vs 1,25D3 (OVX rats [1]; 1 μg/kg, MTR/16): <=
- Anabolic effect on boneweight, Tibia, vs Ovx contr (OVX rats [1]; 1 μg/kg, MTR/16): 6%
- Anabolic effect on boneweight, Tibial Meta., vs 1,25D3 (OVX rats [1]; 1 μg/kg, MTR/16): <
- Anabolic effect on boneweight, Tibial Meta., vs Ovx contr (OVX rats [1]; 1 μg/kg, MTR/16): 6%
- Anabolic effect on boneweight, Femur, vs 1,25D3 (OVX rats [1]; 10 μg/kg, MTR/16): >
- Anabolic effect on boneweight, Femur, vs Ovx contr (OVX rats [1]; 10 μg/kg, MTR/16): 10%
- Anabolic effect on boneweight, L4, vs 1,25D3 (OVX rats [1]; 10 μg/kg, MTR/16): >
- Anabolic effect on boneweight, L4, vs Ovx contr (OVX rats [1]; 10 μg/kg, MTR/16): 13%
- Anabolic effect on boneweight, Tibia, vs 1,25D3 (OVX rats [1]; 10 μg/kg, MTR/16): >
- Anabolic effect on boneweight, Tibia, vs Ovx contr (OVX rats [1]; 10 μg/kg, MTR/16): 8%
- Anabolic effect on boneweight, Tibial Meta., vs 1,25D3 (OVX rats [1]; 10 μg/kg, MTR/16): >
- Anabolic effect on boneweight, Tibial Meta., vs Ovx contr (OVX rats [1]; 10 μg/kg, MTR/16): 14%
- Anabolic effect on boneweight, Femur, vs 1,25D3 (OVX rats [1]; 10 μg/kg, MTR/23): >=
- Anabolic effect on boneweight, Femur, vs Ovx contr (OVX rats [1]; 10 μg/kg, MTR/23): 5%
- Anabolic effect on boneweight, L4, vs 1,25D3 (OVX rats [1]; 10 μg/kg, MTR/23): >=
- Anabolic effect on boneweight, L4, vs Ovx contr (OVX rats [1]; 10 μg/kg, MTR/23): 4%
- Anabolic effect on boneweight, Tibia, vs 1,25D3 (OVX rats [1]; 10 μg/kg, MTR/23): >=
- Anabolic effect on boneweight, Tibia, vs Ovx contr (OVX rats [1]; 10 μg/kg, MTR/23): 5%
- Anabolic effect on boneweight, Tibial Meta., vs 1,25D3 (OVX rats [1]; 10 μg/kg, MTR/23): <
- Anabolic effect on boneweight, Tibial Meta., vs Ovx contr (OVX rats [1]; 10 μg/kg, MTR/23): 8%
- Anabolic effect on boneweight, Femur, vs 1,25D3 (OVX rats [1]; 25 μg/kg, MTR/27): >
- Anabolic effect on boneweight, Femur, vs Ovx contr (OVX rats [1]; 25 μg/kg, MTR/27): 4%
- Anabolic effect on boneweight, L4, vs 1,25D3 (OVX rats [1]; 25 μg/kg, MTR/27): >
- Anabolic effect on boneweight, L4, vs Ovx contr (OVX rats [1]; 25 μg/kg, MTR/27): 9%
- Anabolic effect on boneweight, Tibia, vs 1,25D3 (OVX rats [1]; 25 μg/kg, MTR/27): >
- Anabolic effect on boneweight, Tibia, vs Ovx contr (OVX rats [1]; 25 μg/kg, MTR/27): 3%
- Anabolic effect on boneweight, Tibial Meta., vs 1,25D3 (OVX rats [1]; 25 μg/kg, MTR/27): >
- Anabolic effect on boneweight, Tibial Meta., vs Ovx contr (OVX rats [1]; 25 μg/kg, MTR/27): −2%
- Anabolic effect on boneweight, Femur, vs 1,25D3 (OVX rats [1]; 50 μg/kg, MTR/23): >>
- Anabolic effect on boneweight, Femur, vs Ovx contr (OVX rats [1]; 50 μg/kg, MTR/23): 14%
- Anabolic effect on boneweight, L4, vs 1,25D3 (OVX rats [1]; 50 μg/kg, MTR/23): >>
- Anabolic effect on boneweight, L4, vs Ovx contr (OVX rats [1]; 50 μg/kg, MTR/23): 15%
- Anabolic effect on boneweight, Tibia, vs 1,25D3 (OVX rats [1]; 50 μg/kg, MTR/23): >>
- Anabolic effect on boneweight, Tibia, vs Ovx contr (OVX rats [1]; 50 μg/kg, MTR/23): 13%
- Anabolic effect on boneweight, Tibial Meta., vs 1,25D3 (OVX rats [1]; 50 μg/kg, MTR/23): =
- Anabolic effect on boneweight, Tibial Meta., vs Ovx contr (OVX rats [1]; 50 μg/kg, MTR/23): 22%
- Anabolic effect on boneweight, Femur, vs 1,25D3 (OVX rats [1]; 50 μg/kg, MTR/27): >
- Anabolic effect on boneweight, Femur, vs Ovx contr (OVX rats [1]; 50 μg/kg, MTR/27): 6%
- Anabolic effect on boneweight, L4, vs 1,25D3 (OVX rats [1]; 50 μg/kg, MTR/27): >
- Anabolic effect on boneweight, L4, vs Ovx contr (OVX rats [1]; 50 μg/kg, MTR/27): 11%
- Anabolic effect on boneweight, Tibia, vs 1,25D3 (OVX rats [1]; 50 μg/kg, MTR/27): >
- Anabolic effect on boneweight, Tibia, vs Ovx contr (OVX rats [1]; 50 μg/kg, MTR/27): 4%
- Anabolic effect on boneweight, Tibial Meta., vs 1,25D3 (OVX rats [1]; 50 μg/kg, MTR/27): >
- Anabolic effect on boneweight, Tibial Meta., vs Ovx contr (OVX rats [1]; 50 μg/kg, MTR/27): −1%
- Anabolic effect on boneweight, Femur, vs 1,25D3 (OVX rats [1]; 75 μg/kg, MTR/27): >
- Anabolic effect on boneweight, Femur, vs Ovx contr (OVX rats [1]; 75 μg/kg, MTR/27): 8%
- Anabolic effect on boneweight, L4, vs 1,25D3 (OVX rats [1]; 75 μg/kg, MTR/27): >
- Anabolic effect on boneweight, L4, vs Ovx contr (OVX rats [1]; 75 μg/kg, MTR/27): 13%
- Anabolic effect on boneweight, Tibia, vs 1,25D3 (OVX rats [1]; 75 μg/kg, MTR/27): >
- Anabolic effect on boneweight, Tibia, vs Ovx contr (OVX rats [1]; 75 μg/kg, MTR/27): 7%
- Anabolic effect on boneweight, Tibial Meta., vs 1,25D3 (OVX rats [1]; 75 μg/kg, MTR/27): >>
- Anabolic effect on boneweight, Tibial Meta., vs Ovx contr (OVX rats [1]; 75 μg/kg, MTR/27): 9%
- Anabolic effect on boneweight, Femur, vs 1,25D3 (OVX rats [1]; 100 μg/kg, MTR/23): >
- Anabolic effect on boneweight, Femur, vs Ovx contr (OVX rats [1]; 100 μg/kg, MTR/23): 9%
- Anabolic effect on boneweight, L4, vs 1,25D3 (OVX rats [1]; 100 μg/kg, MTR/23): >
- Anabolic effect on boneweight, L4, vs Ovx contr (OVX rats [1]; 100 μg/kg, MTR/23): 12%
- Anabolic effect on boneweight, Tibia, vs 1,25D3 (OVX rats [1]; 100 μg/kg, MTR/23): >
- Anabolic effect on boneweight, Tibia, vs Ovx contr (OVX rats [1]; 100 μg/kg, MTR/23): 7%
- Anabolic effect on boneweight, Tibial Meta., vs 1,25D3 (OVX rats [1]; 100 μg/kg, MTR/23): =
- Anabolic effect on boneweight, Tibial Meta., vs Ovx contr (OVX rats [1]; 100 μg/kg, MTR/23): 24%
- bone anabolic effects (boneweight, biomechanical strength) compared to 1,25D3 (OVX rats [1]; summary of Tables 1 to 4, FIG. 1 and FIG. 2): comparable to or even better than 1,25D3
- Effect on urine calcium vs 1,25D3 (OVX rats [2]; 1 μg/kg, MTR/16): No
- Effect on urine calcium vs Ovx contr (OVX rats [2]; 1 μg/kg, MTR/16): −23%
- Effect on urine calcium vs 1,25D3 (OVX rats [2]; 10 μg/kg, MTR/16): <<<
- Effect on urine calcium vs Ovx contr (OVX rats [2]; 10 μg/kg, MTR/16): 104%
- Effect on urine calcium vs 1,25D3 (OVX rats [2]; 10 μg/kg, MTR/23): <<<
- Effect on urine calcium vs Ovx contr (OVX rats [2]; 10 μg/kg, MTR/23): 45%
- Effect on urine calcium vs 1,25D3 (OVX rats [2]; 25 μg/kg, MTR/27): <<
- Effect on urine calcium vs Ovx contr (OVX rats [2]; 25 μg/kg, MTR/27): 155%
- Effect on urine calcium vs 1,25D3 (OVX rats [2]; 50 μg/kg, MTR/23): <=
- Effect on urine calcium vs Ovx contr (OVX rats [2]; 50 μg/kg, MTR/23): 373%
- Effect on urine calcium vs 1,25D3 (OVX rats [2]; 50 μg/kg, MTR/27): =
- Effect on urine calcium vs Ovx contr (OVX rats [2]; 50 μg/kg, MTR/27): 750%
- Effect on urine calcium vs 1,25D3 (OVX rats [2]; 75 μg/kg, MTR/27): >=
- Effect on urine calcium vs Ovx contr (OVX rats [2]; 75 μg/kg, MTR/27): 777%
- Effect on urine calcium vs 1,25D3 (OVX rats [2]; 100 μg/kg, MTR/23): <=
- Effect on urine calcium vs Ovx contr (OVX rats [2]; 100 μg/kg, MTR/23): 463%
